Legend:
Format in all cases: cell-based
Hep2 = assay: MTT cytotoxicity assay, Hep2 larynx; conditions: Homo sapiens, HEp-2, 24 h, read-out: ED50 values of cytotoxicity
Description: (§1) Briefly, a […] MTT cytotoxicity assay was performed, which is based on the principle of uptake of MTT (3-(4,5-dimethylthiazol-2-yl)-2,5-diphenyl tetrazolium bromide), a tetrazolium salt, by the metabolically active cells where it is metabolized by active mitochondria into a blue colored formazan product that is read spectrophoto-metrically. MTT was dissolved in phosphate buffered saline with a pH of 7.4 to obtain an MTT concentration of 5 mg/ml; the resulting mixture was filtered through a 0.22 micron filter to sterilize and remove a small amount of insoluble residue. For each type of tumor cell, 20,000 to 50,000 cells were seeded in a 96-well culture plate and incubated with the combination in a CO2 incubator for 24 hours. […] The assay was terminated after 24 hours by adding 100 ug (20 ul) of MTT to each well, then incubating for additional one hour, and finally adding 50 ul of 10% SDS-0.01N HCl to each well to lyse the cells and dissolve formazan. After incubating for one hour, the plate was read spectrophotometrically at 540 nm and the percentage cytotoxicity calculated.

MCF7 = assay: MTT cytotoxicity assay, MCF7 breast; conditions: Homo sapiens; for IC50: MCF7, 24 h, MCF 7 Breast, read-out: ED50 values of cytotoxicity; for cytotoxicity at 1000 µM / cytotoxicity at 2500 µM / cytotoxicity at 4000 µM / cytotoxicity at 5000 µM / cytotoxicity at 10000 µM: MCF7 breast, read-out: Percent cytotoxicity; for cytotoxicity at 1000 µM: 1.0 mM; for cytotoxicity at 2500 µM: 2.5 mM; for cytotoxicity at 4000 µM: 4 mM; for cytotoxicity at 5000 µM: 5 mM; for cytotoxicity at 10000 µM: 10 mM
Description: as §1

U87MG = assay: MTT cytotoxicity assay, U87MG glioblastoma; conditions: Homo sapiens, U-87 MG, 24 h, read-out: ED50 values of cytotoxicity
Description: as §1

DU145 = assay: MTT cytotoxicity assay, DU145 prostate; conditions: Homo sapiens; for cytotoxicity at 1000 µM: DU-145, 1.0 mM; for cytotoxicity at 1000 µM / cytotoxicity at 2500 µM / cytotoxicity at 4000 µM / cytotoxicity at 5000 µM / cytotoxicity at 10000 µM: read-out: Percent cytotoxicity; for cytotoxicity at 2500 µM: DU-145, 2.5 mM; for cytotoxicity at 4000 µM: DU-145, 4 mM; for cytotoxicity at 5000 µM: DU-145, 5 mM; for cytotoxicity at 10000 µM: DU-145, 10 mM; for IC50: DU-145, 24 h, read-out: ED50 values of cytotoxicity
Description: as §1

293 = assay: MTT cytotoxicity assay, 293 kidney; conditions: Homo sapiens, HEK293, 24 h, read-out: ED50 values of cytotoxicity
Description: as §1

KB = assay: MTT cytotoxicity assay, KB oral; conditions: Homo sapiens, 24 h, read-out: ED50 values of cytotoxicity
Description: as §1

Miapaca2 = assay: MTT cytotoxicity assay, Miapaca2 pancreas; conditions: Homo sapiens; for cytotoxicity at 1000 µM: MIA PaCa-2, 1.0 mM; for cytotoxicity at 1000 µM / cytotoxicity at 2500 µM / cytotoxicity at 4000 µM / cytotoxicity at 5000 µM / cytotoxicity at 10000 µM: read-out: Percent cytotoxicity; for cytotoxicity at 2500 µM: MIA PaCa-2, 2.5 mM; for cytotoxicity at 4000 µM: MIA PaCa-2, 4 mM; for cytotoxicity at 5000 µM: MIA PaCa-2, 5 mM; for cytotoxicity at 10000 µM: MIA PaCa-2, 10 mM; for IC50: MIA PaCa-2, 24 h, read-out: ED50 values of cytotoxicity
Description: as §1

INT 407 = assay: MTT cytotoxicity assay, INT 407 intestine; conditions: Homo sapiens, 24 h, read-out: ED50 values of cytotoxicity
Description: as §1

L132 = assay: MTT cytotoxicity assay, L132 lung; conditions: Homo sapiens; for cytotoxicity at 1000 µM: 1.0 mM; for cytotoxicity at 1000 µM / cytotoxicity at 2500 µM / cytotoxicity at 4000 µM / cytotoxicity at 5000 µM / cytotoxicity at 10000 µM: read-out: Percent cytotoxicity; for cytotoxicity at 2500 µM: 2.5 mM; for cytotoxicity at 4000 µM: 4 mM; for cytotoxicity at 5000 µM: 5 mM; for cytotoxicity at 10000 µM: 10 mM; for IC50: 24 h, read-out: ED50 values of cytotoxicity
Description: as §1

PA 1 = assay: MTT cytotoxicity assay, PA 1 ovary; conditions: Homo sapiens; for IC50: 24 h, PA 1 Ovarian, read-out: ED50 values of cytotoxicity; for cytotoxicity at 1000 µM / cytotoxicity at 2500 µM / cytotoxicity at 4000 µM / cytotoxicity at 5000 µM / cytotoxicity at 10000 µM: PA 1 Ovary, read-out: Percent cytotoxicity; for cytotoxicity at 1000 µM: 1.0 mM; for cytotoxicity at 2500 µM: 2.5 mM; for cytotoxicity at 4000 µM: 4 mM; for cytotoxicity at 5000 µM: 5 mM; for cytotoxicity at 10000 µM: 10 mM
Description: as §1

MOLT 4 = assay: MTT cytotoxicity assay, MOLT 4 leukemia; conditions: Homo sapiens; for IC50: 24 h, Molt 4 Leukemia, read-out: ED50 values of cytotoxicity; for cytotoxicity at 1000 µM / cytotoxicity at 2500 µM / cytotoxicity at 4000 µM / cytotoxicity at 5000 µM / cytotoxicity at 10000 µM: MOLT 4 Leukemia, read-out: Percent cytotoxicity; for cytotoxicity at 1000 µM: 1.0 mM; for cytotoxicity at 2500 µM: 2.5 mM; for cytotoxicity at 4000 µM: 4 mM; for cytotoxicity at 5000 µM: 5 mM; for cytotoxicity at 10000 µM: 10 mM
Description: as §1

PTC = assay: MTT cytotoxicity assay, PTC colon; conditions: Homo sapiens; for cytotoxicity at 1000 µM: 1.0 mM; for cytotoxicity at 1000 µM / cytotoxicity at 2500 µM / cytotoxicity at 4000 µM / cytotoxicity at 5000 µM / cytotoxicity at 10000 µM: read-out: Percent cytotoxicity; for cytotoxicity at 2500 µM: 2.5 mM; for cytotoxicity at 4000 µM: 4 mM; for cytotoxicity at 5000 µM: 5 mM; for cytotoxicity at 10000 µM: 10 mM; for IC50: 24 h, read-out: ED50 values of cytotoxicity
Description: as §1

For `CCCCOC(=O)C1CCC(=O)N1C(OC(C)=O)C(C)=O` (stereo not shown) [MGC-5, N-(1-acetoxy-2-ketopropyl)-butylpyroglutamate], the IC50 (Hep2) was 1900 µM, the IC50 (MCF7) was 5000 ± 2100 µM and the cytotoxicity at 1000 µM (MCF7) was 0%. It also gave a cytotoxicity at 2500 µM (MCF7) of 0%, a cytotoxicity at 4000 µM (MCF7) of 34.9 ± 3.9% and a cytotoxicity at 5000 µM (MCF7) of 51.9 ± 3.8%. The cytotoxicity at 10000 µM (MCF7) was 58.7 ± 5%, the IC50 (U87MG) was 3400 ± 1100 µM and the cytotoxicity at 1000 µM (DU145) was 27.9 ± 0.4%. It also gave a cytotoxicity at 2500 µM (DU145) of 58.4 ± 5.9%, a cytotoxicity at 4000 µM (DU145) of 59 ± 4.3% and a cytotoxicity at 5000 µM (DU145) of 68.3 ± 4.6%. It also gave a cytotoxicity at 10000 µM (DU145) of 80 ± 7%, an IC50 (DU145) of 1900 ± 700 µM and an IC50 293 of 1900 ± 700 µM. It also gave an IC50 (KB) of 2000 ± 700 µM, a cytotoxicity at 1000 µM (Miapaca2) of 0% and a cytotoxicity at 2500 µM (Miapaca2) of 24.8 ± 2.6%. For the same compound, the cytotoxicity at 4000 µM (Miapaca2) was 43.8 ± 3.9%, the cytotoxicity at 5000 µM (Miapaca2) was 54.9 ± 4.2% and the cytotoxicity at 10000 µM (Miapaca2) was 67.9 ± 4%. The IC50 (Miapaca2) was 4300 ± 1600 µM, the IC50 (INT 407) was 2600 ± 1100 µM and the cytotoxicity at 1000 µM (L132) was 2.9 ± 0.1%. The cytotoxicity at 2500 µM (L132) was 36.9 ± 4.9%, the cytotoxicity at 4000 µM (L132) was 57.8 ± 4% and the cytotoxicity at 5000 µM (L132) was 59 ± 6%. For the same compound, the cytotoxicity at 10000 µM (L132) was 76.3 ± 5.4%, the IC50 (L132) was 3600 ± 1100 µM and the IC50 (PA 1) was 1600 ± 100 µM. It also gave a cytotoxicity at 1000 µM (PA 1) of 31.8 ± 3.1%, a cytotoxicity at 2500 µM (PA 1) of 58.8 ± 5.3% and a cytotoxicity at 4000 µM (PA 1) of 83.9 ± 7.8%. The cytotoxicity at 5000 µM (PA 1) was 85.9 ± 6.2%, the cytotoxicity at 10000 µM (PA 1) was 86.9 ± 8.4% and the IC50 (MOLT 4) was 1500 ± 100 µM. It also gave a cytotoxicity at 1000 µM (MOLT 4) of 25.9 ± 2.9%, a cytotoxicity at 2500 µM (MOLT 4) of 61 ± 4.8% and a cytotoxicity at 4000 µM (MOLT 4) of 76 ± 7.1%. The cytotoxicity at 5000 µM (MOLT 4) was 82.9 ± 6.9%, the cytotoxicity at 10000 µM (MOLT 4) was 87.9 ± 6.9% and the cytotoxicity at 1000 µM (PTC) was 2.9 ± 0.3%. The cytotoxicity at 2500 µM (PTC) was 37.9 ± 3.9%, the cytotoxicity at 4000 µM (PTC) was 53.9 ± 5.4% and the cytotoxicity at 5000 µM (PTC) was 85.9 ± 8.9%. The cytotoxicity at 10000 µM (PTC) was 89.2 ± 7.4% and the IC50 (PTC) was 3800 ± 900 µM.

For `CC(=O)C(O)N1C(=O)CCC1C(=O)OCc1ccccc1` (stereo not shown) [MGC-3, N-(1-hydroxy-2-ketopropyl)-benzylpyroglutamate], the IC50 (Hep2) was 2600 µM, the IC50 (MCF7) was > 5000 µM and the cytotoxicity at 1000 µM (MCF7) was 0%. For the same compound, the cytotoxicity at 2500 µM (MCF7) was 0%, the cytotoxicity at 4000 µM (MCF7) was 0% and the cytotoxicity at 5000 µM (MCF7) was 2.7 ± 0.1%. For the same compound, the cytotoxicity at 10000 µM (MCF7) was 12.4 ± 1%, the IC50 (U87MG) was > 5000 µM and the cytotoxicity at 1000 µM (DU145) was 29.4 ± 4.2%. It also gave a cytotoxicity at 2500 µM (DU145) of 56.9 ± 4.3%, a cytotoxicity at 4000 µM (DU145) of 64.8 ± 6.3% and a cytotoxicity at 5000 µM (DU145) of 87.9 ± 8.3%. The cytotoxicity at 10000 µM (DU145) was 88.4 ± 4%, the IC50 (DU145) was 1800 ± 200 µM and the IC50 293 was 2000 ± 300 µM. For the same compound, the IC50 (KB) was 2550 ± 400 µM, the cytotoxicity at 1000 µM (Miapaca2) was 0% and the cytotoxicity at 2500 µM (Miapaca2) was 0%. The cytotoxicity at 4000 µM (Miapaca2) was 0%, the cytotoxicity at 5000 µM (Miapaca2) was 12.9 ± 1% and the cytotoxicity at 10000 µM (Miapaca2) was 14.1 ± 1.9%. For the same compound, the IC50 (Miapaca2) was > 5000 µM, the IC50 (INT 407) was 2850 ± 700 µM and the cytotoxicity at 1000 µM (L132) was 0%. For the same compound, the cytotoxicity at 2500 µM (L132) was 30 ± 2.9%, the cytotoxicity at 4000 µM (L132) was 45.8 ± 4.5% and the cytotoxicity at 5000 µM (L132) was 52.9 ± 5.2%. For the same compound, the cytotoxicity at 10000 µM (L132) was 79.4 ± 5.9%, the IC50 (L132) was 4600 ± 1600 µM and the IC50 (PA 1) was 1800 ± 600 µM. It also gave a cytotoxicity at 1000 µM (PA 1) of 42.8 ± 4.9%, a cytotoxicity at 2500 µM (PA 1) of 64.8 ± 5.9% and a cytotoxicity at 4000 µM (PA 1) of 66.9 ± 5.9%. It also gave a cytotoxicity at 5000 µM (PA 1) of 78.9 ± 7.4%, a cytotoxicity at 10000 µM (PA 1) of 88.5 ± 8.4% and an IC50 (MOLT 4) of 1650 ± 500 µM. It also gave a cytotoxicity at 1000 µM (MOLT 4) of 42.1 ± 4.3%, a cytotoxicity at 2500 µM (MOLT 4) of 54.9 ± 4.3% and a cytotoxicity at 4000 µM (MOLT 4) of 65.9 ± 4.3%. For the same compound, the cytotoxicity at 5000 µM (MOLT 4) was 87.9 ± 7.3%, the cytotoxicity at 10000 µM (MOLT 4) was 88.3 ± 7.4% and the cytotoxicity at 1000 µM (PTC) was 0%. It also gave a cytotoxicity at 2500 µM (PTC) of 32.9 ± 3.8%, a cytotoxicity at 4000 µM (PTC) of 54.9 ± 3.8% and a cytotoxicity at 5000 µM (PTC) of 56.8 ± 5.7%. It also gave a cytotoxicity at 10000 µM (PTC) of 86.9 ± 7.6% and an IC50 (PTC) of 3800 ± 700 µM.

Reference: patent publication US20030118627A1 (DABUR RESEARCH FOUNDATION, priority 2001, published 2003)
